Source: patent US12187702B2, “Sulfonamideurea compounds” (Inflazome Limited, priority 2018, dated 2025)
Counter-ions that a name gives are not always drawn.

Columns and labels:
NLRP3 [1] = target: T1, NLRP3 (Homo sapiens, UniProt Q96P20); experiment: THP-1 cells pyroptosis assay (LPS + nigericin, resazurin read-out); assay type: cell-based; design: Seed THP-1 cells (25,000 cells/well) containing 1.0 μg/ml LPS; host or cells: THP-1 cells
In short: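 THP-1 cells (25,000/well) primed with 1 μg/ml LPS in serum-free RPMI, treated 3 h with compound (8-point half-log series, 10 μM top, 0.1% DMSO), then 5 μM nigericin for 1 h at 37 °C. Viability read by 100 μM resazurin fluorescence after 1-2 h; IC50 from 4-parameter fit.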

[2] = PK, intravenous administration; assay type: in vivo, male Sprague Dawley rats; settings: male, Sprague Dawley, plasma, rat; for clearance / half-life: dose per compound as in Table 3; for AUC: dose per compound as in Table 3 (0.08-1.86 mg/kg); for Vd: dose per compound as in Table 3, read-out: Vdss
Procedure: Pharmacokinetic parameters were determined in male Sprague Dawley rats (Charles River, UK, 250-350 g; or Vital River Laboratory Animal Technology Co Ltd, Beijing, China, 7-9 weeks old). Animals were individually housed during the study and maintained under a 12 h light/dark cycle.
For intravenous administration, compounds were formulated as a solution in water or DMSO:PBS [10:90] in 2 mL/kg dosing volume and administered via tail or jugular vein. For oral administration, compounds were formulated as a solution in 0.5% w/v methyl cellulose in water in 5 mL/kg dosing volume and administered orally.
Serial blood samples (about 120-300 μL) were taken from each animal at each of 8 time-points post dose (0.083, 0.25, 0.5, 1, 2, 4, 8 and 24 h) or at each of 12 time-points post dose (0.03, 0.1, 0.17, 0.25, 0.5, 1, 2, 4, 6, 8, 12 and 24 h) or pre-dose and at each of 9 time-points post dose (0.25, 0.5, 1, 2, 4, 6, 8, 12 and 24 h). Samples were held on ice for no longer than 30 minutes before centrifugation (10,000 rpm (8,385 g) for 3 minutes; or 5,696 rpm (3,000 g) for 15 minutes) for plasma generation. Plasma was frozen on dry ice prior to bioanalysis. PK parameters were generated from LC-MS/MS data using Dotmatics or Phoenix WinNonlin 6.3 software.

NLRP3 [3] = target: T1, NLRP3; experiment: Human whole blood IL-1β release assay (LPS + nigericin, AlphaLisa); assay type: cell-based; design: Plate out 80 μl of whole blood containing 1 μg/ml of LPS; from tissue; host or cells: human whole blood from healthy donors
Procedure: For systemic delivery, the ability to inhibit NLRP3 when the compounds are present within the bloodstream is of great importance. For this reason, the NLRP3 inhibitory activity of a number of compounds in human whole blood was investigated in accordance with the following protocol.
Human whole blood in Li-heparin tubes was obtained from healthy donors from a volunteer donor panel. • 1. Plate out 80 μl of whole blood containing 1 μg/ml of LPS in 96-well, clear bottom cell culture plate (Corning #3585) • 2. Add 10 μl compound (8 points half-log dilution with 10 μM top dose) or vehicle (DMSO 0.1% FAC) to the appropriate wells • 3. Incubate for 3 hrs at 37° C., 5% CO2 • 4. Add 10 μl nigericin (Sigma #N7143) (10 μM FAC) to all wells • 5. Incubate for 1 hr at 37° C., 5% CO2 • 6. At the end of the incubation period, spin plates at 300×g for 5 mins to pellet cells and remove 20 μl of supernatant and add to 96-well v-bottom plates for IL-1β analysis (note: these plates containing the supernatants can be stored at −80° C. to be analysed at a later date) • 7. IL-1β was measured according to the manufacturer protocol (Perkin Elmer-AlphaLisa IL-1 Kit AL220F-5000) • 8. IC50 data is fitted to a non-linear regression equation (log inhibitor vs response-variable slope 4-parameters)

[4] = THP-1 cells, 1 μg/ml LPS, 5 μM nigericin, NLRP3 inhibitory activity, read-out: THP IC50
[5] = human whole blood, 1 μg/ml LPS, 10 μM nigericin, IL-1β release, read-out: HWB IC50

T1 sequence (Q96P20 whole entry): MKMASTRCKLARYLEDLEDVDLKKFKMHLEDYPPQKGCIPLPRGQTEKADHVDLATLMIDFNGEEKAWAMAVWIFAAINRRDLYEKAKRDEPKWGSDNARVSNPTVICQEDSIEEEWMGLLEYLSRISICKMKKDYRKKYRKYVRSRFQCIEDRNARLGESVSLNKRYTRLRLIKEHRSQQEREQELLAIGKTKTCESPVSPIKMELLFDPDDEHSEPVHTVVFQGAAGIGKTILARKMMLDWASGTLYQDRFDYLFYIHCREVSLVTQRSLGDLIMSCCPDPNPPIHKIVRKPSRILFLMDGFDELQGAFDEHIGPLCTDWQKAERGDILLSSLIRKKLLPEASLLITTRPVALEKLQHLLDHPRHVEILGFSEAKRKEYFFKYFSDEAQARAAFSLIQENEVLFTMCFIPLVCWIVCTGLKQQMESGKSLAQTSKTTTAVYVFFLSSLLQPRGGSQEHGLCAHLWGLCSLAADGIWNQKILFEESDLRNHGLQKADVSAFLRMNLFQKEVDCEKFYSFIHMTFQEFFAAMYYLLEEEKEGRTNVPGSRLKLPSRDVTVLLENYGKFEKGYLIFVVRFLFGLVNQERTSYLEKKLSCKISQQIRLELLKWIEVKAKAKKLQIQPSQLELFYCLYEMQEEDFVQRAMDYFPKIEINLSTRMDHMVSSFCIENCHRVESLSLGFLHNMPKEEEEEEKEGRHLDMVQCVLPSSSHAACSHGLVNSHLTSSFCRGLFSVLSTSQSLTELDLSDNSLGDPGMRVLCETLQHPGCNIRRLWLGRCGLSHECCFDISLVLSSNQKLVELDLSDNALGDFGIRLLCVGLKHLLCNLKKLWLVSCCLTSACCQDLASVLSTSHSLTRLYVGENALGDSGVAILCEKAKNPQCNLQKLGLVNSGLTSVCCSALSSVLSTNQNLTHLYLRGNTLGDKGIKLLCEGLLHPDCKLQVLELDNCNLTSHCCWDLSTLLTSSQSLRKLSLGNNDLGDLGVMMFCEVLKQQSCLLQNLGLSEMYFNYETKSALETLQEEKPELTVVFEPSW

SMILES	IC50 (NLRP3 [1]; [4]) [nM]	clearance [2] [mL/min/kg]	half-life [2] [h]	AUC [2] [ng·h/mL]	Vd [2] [L/kg]	IC50 (NLRP3 [3]; [5]) [nM]	IC50 (NLRP3 [1]) [nM]	IC50 (NLRP3 [3]) [nM]
CN(C)CCN(C)S(=O)(=O)NC(=O)Nc1c2c(cc3c1CCC3)CCC2 [Example 6, potassium salt]	< 500	2.3	2.7	7270	0.35	< 500	–	–
CN(C)CCNS(=O)(=O)NC(=O)Nc1c2c(cc3c1CCC3)CCC2 [Example 8, 3-(N-(2-(Dimethylamino)ethyl)sulfamoyl)-1-(1,2,3,5,6,7-hexahydro-s-indacen-4-yl)urea]	< 1000	7.3	4	2290	0.61	< 500	–	–
CN1CCC(N(C)S(=O)(=O)NC(=O)Nc2c3c(cc4c2CCC4)CCC3)C1 (stereo not drawn) [Example 11, 3-(N-Methyl-N-(1-methylpyrrolidin-3-yl)sulfamoyl)-1-(1,2,3,5,6,7-hexahydro-s-indacen-4-yl)urea, potassium salt]	< 500	2.9	2.7	5660	0.59	< 500	–	–
CN1CCCCC1CNS(=O)(=O)NC(=O)Nc1c2c(cc3c1CCC3)CCC2 (stereo not drawn) [Example 20, 3-(N-((1-Methylpiperidin-2-yl)methyl)sulfamoyl)-1-(1,2,3,5,6,7-hexahydro-s-indacen-4-yl)urea, potassium salt]	< 500	7.1	1.2	2360	0.4	< 500	–	–
CC(C)N1CCC(N(C)S(=O)(=O)NC(=O)Nc2c3c(cc4c2CCC4)CCC3)C1 (stereo not drawn) [Example 36, 3-(N-(1-isopropylpyrrolidin-3-yl)-N-methylsulfamoyl)-1-(1,2,3,5,6,7-hexahydro-s-indacen-4-yl)urea, potassium salt]	< 500	2.8	1.1	5910	0.23	< 1000	–	–
CC(C)N1CC2CN(S(=O)(=O)NC(=O)Nc3c4c(cc5c3CCC5)CCC4)CC21 (stereo not drawn) [Example 87, N-((1,2,3,5,6,7-Hexahydro-s-indacen-4-yl)carbamoyl)-6-isopropyl-3,6-diazabicyclo[3.2.0]heptane-3-sulfonamide, potassium salt]	< 500	–	–	–	–	< 5000	–	–
CN1CC[C@H](NS(=O)(=O)NC(=O)Nc2c3c(cc4c2CCC4)CCC3)C1 [Example 88, 3-((S)—N-(1-Methylpyrrolidin-3-yl)sulfamoyl)-1-(1,2,3,5,6,7-hexahydro-s-indacen-4-yl)urea, potassium salt]	< 1000	–	–	–	–	< 500	–	–
CN1CC[C@@H](NS(=O)(=O)NC(=O)Nc2c3c(cc4c2CCC4)CCC3)C1 [Example 89, 3-((R)—N-(1-Methylpyrrolidin-3-yl)sulfamoyl)-1-(1,2,3,5,6,7-hexahydro-s-indacen-4-yl)urea, potassium salt]	< 500	–	–	–	–	< 500	–	–
CN1CCCN(S(=O)(=O)NC(=O)Nc2c3c(cc4c2CCC4)CCC3)CC1 [Example 90, N-((1,2,3,5,6,7-Hexahydro-s-indacen-4-yl)carbamoyl)-4-methyl-1,4-diazepane-1-sulfonamide, potassium salt]	< 1000	–	–	–	–	< 500	–	–
CN1CC2(CCN2S(=O)(=O)NC(=O)Nc2c3c(cc4c2CCC4)CCC3)C1 [Example 91, N-((1,2,3,5,6,7-Hexahydro-s-indacen-4-yl)carbamoyl)-6-methyl-1,6-diazaspiro[3.3]heptane-1-sulfonamide, potassium salt]	< 1000	–	–	–	–	< 5000	–	–
CN1C[C@H]2CN(S(=O)(=O)NC(=O)Nc3c4c(cc5c3CCC5)CCC4)C[C@H]21 [Example 92, (1S,5S)—N-((1,2,3,5,6,7-Hexahydro-s-indacen-4-yl)carbamoyl)-6-methyl-3,6-diazabicyclo[3.2.0]heptane-3-sulfonamide, potassium salt]	< 500	–	–	–	–	< 500	–	–
CN1C[C@@H]2CN(S(=O)(=O)NC(=O)Nc3c4c(cc5c3CCC5)CCC4)C[C@@H]21 [Example 93, (1R,5R)—N-((1,2,3,5,6,7-Hexahydro-s-indacen-4-yl)carbamoyl)-6-methyl-3,6-diazabicyclo[3.2.0]heptane-3-sulfonamide, potassium salt]	< 500	–	–	–	–	< 500	–	–
CN1CC2CN(S(=O)(=O)NC(=O)Nc3c4c(cc5c3CCC5)CCC4)C2C1 (stereo not drawn) [Example 94, N-((1,2,3,5,6,7-Hexahydro-s-indacen-4-yl)carbamoyl)-3-methyl-3,6-diazabicyclo[3.2.0]heptane-6-sulfonamide, potassium salt]	< 500	–	–	–	–	< 1000	–	–
CN1CCC[C@@H]1CN(C)S(=O)(=O)NC(=O)Nc1c2c(cc3c1CCC3)CCC2 [Example 95, 3-((R)—N-Methyl-N-((1-methylpyrrolidin-2-yl)methyl)sulfamoyl)-1-(1,2,3,5,6,7-hexahydro-s-indacen-4-yl)urea, potassium salt]	< 500	–	–	–	–	< 500	–	–
CN1CCCC2CN(S(=O)(=O)NC(=O)Nc3c4c(cc5c3CCC5)CCC4)CC21 (stereo not drawn) [Example 97, N-((1,2,3,5,6,7-Hexahydro-s-indacen-4-yl)carbamoyl)-1-methyloctahydro-6H-pyrrolo[3,4-b]pyridine-6-sulfonamide]	< 500	–	–	–	–	< 500	–	–
CN1CCC2CCN(S(=O)(=O)NC(=O)Nc3c4c(cc5c3CCC5)CCC4)CC21 (stereo not drawn) [Example 98, N-((1,2,3,5,6,7-Hexahydro-s-indacen-4-yl)carbamoyl)-1-methyloctahydro-6H-pyrrolo[2,3-c]pyridine-6-sulfonamide]	< 5000	–	–	–	–	< 5000	–	–
COc1cc(-c2ccc3c(c2NC(=O)NS(=O)(=O)N2CC4CCN(C)C4C2)CCC3)ccn1 (stereo not drawn) [Example 106]	–	6	5.61	5150	0.84	–	–	–
CC(C)c1cc(F)cc(-c2ccncc2)c1NC(=O)NS(=O)(=O)N(C)C1CCN(C)C1 (stereo not drawn) [Example 108]	< 500	–	–	–	–	< 500	–	–
CN1CCC[C@@H]1CN(C)S(=O)(=O)NC(=O)Nc1c2c(cc3c1CCC3)C=CC2 [Example 112, (R)—(N-Methyl-N-((1-methylpyrrolidin-2-yl)methyl)sulfamoyl)((1,2,3,5-tetrahydro-s-indacen-4-yl)carbamoyl)amide, potassium salt]	< 1000	–	–	–	–	< 5000	–	–
Cc1cc2c(c(NC(=O)NS(=O)(=O)N(C)C)c1-c1ccnc(OC3CCN(C)CC3)c1)CCC2 [Example 113, N-((6-Methyl-5-(2-((1-methylpiperidin-4-yl)oxy)pyridin-4-yl)-2,3-dihydro-1H-inden-4-yl)carbamoyl)N,N-dimethylsulfamide]	–	–	–	–	–	–	< 500	< 500
COc1cc(-c2c(C)cc3c(c2NC(=O)NS(=O)(=O)N(C)C)CCC3)ccn1 [Example 114, N-((5-(2-Methoxypyridin-4-yl)-6-methyl-2,3-dihydro-1H-inden-4-yl)carbamoyl)(N,N-dimethylsulfamoyl)amide]	< 500	–	–	–	–	< 1000	–	–
CN1CCC[C@H]1CN(C)S(=O)(=O)NC(=O)Nc1c2c(cc3c1CCC3)CCC2 [Example 115, 3-((S)—N-Methyl-N-((-1-methylpyrrolidin-2-yl)methyl)sulfamoyl)-1-(1,2,3,5,6,7-hexahydro-s-indacen-4-yl)urea, sodium salt]	< 500	–	–	–	–	< 1000	–	–
